Assay results: US20250090510A1, “eIF4G1-eIF1 INHIBITORS AND USE THEREOF” (YEDA RESEARCH AND DEVELOPMENT CO. LTD., priority 2022, published 2025)

Assays:
HEK293T cells = experiment: Ribo-seq and TI-seq translation efficiency analysis; format: cell-based, human; details: i14G1-10 20 μM, i14G1-12 10 μM; 3 h
Protocol: FIGS. 4A-L: The effect eIF1-eIF4G1 inhibition by i14G1-10 or i14G1-12 on global translation is linked to start codon stringency. (4A) HEK293T cells were treated with DMSO, i14G1-10 (20 μM), and […] (10 μM) for 3 h and then ribosome foot printing libraries were prepared, sequenced and analyzed as described in the scheme. The presented graphs show meta-gene analysis of the distribution of normalized reads in the coding region (CDS) and 5′UTR of all analyzed genes in DMSO (black), i14G1-10 (blue), and i14G1-12 (red). (4B) Summary of the number of genes whose ribosomal occupancy was affected (fold change, […]) or unaffected in coding regions (CDS) (left) and 5′UTR (right) in i14G1-10 or i14G1-12 samples. […] (4E) Analysis of the nucleotide context of the annotated start codon of i14G1-10 and i14G1-12 differentially translated mRNAs using the STREME motif discovery algorithm. (4F) The translation efficiency of eIF1 in DMSO, i14G1-10 and i14G1-12 samples calculated from the Ribo-seq data. The weak AUG context of eIF1 is shown above. […] (4I) HEK293T cells were transfected with a firefly luciferase reporter gene driven by either by AUG or near cognate start codon, i.e., ACG, CUG, GUG, and UUG. The Renilla luciferase reporter gene was also co-transfected and served as a normalizing control. The near cognate start codon activities in DMSO control and i14G1-10 and i14G1-12 treated cells are presented as a percentage of AUG activity. The data are shown as mean±SEM, n=5. the asterisks denote statistically significant difference compared to DMSO, according to Student's t-tests (one-tailed, paired). *p<0.05; **p<0.01. (4J) Scatter plots showing the translation efficiencies correlations (R2 >0.9) of all analyzed genes between the two independent replicate experiments with DMSO (vehicle control) (top), i14G1-10 (middle), and i14G1-12 (bottom). (4K) Scatter plots showing the translation efficiencies correlations between 5′UTR and CDS (Pearson's r >0.5) of all analyzed genes of two independent replicate experiments with i14G1-10 (left) and i14G1-12 (right).
Ribo-seq and TI-seq. HEK293T cells were grown in 10 cm culture dish until 80% confluence, and treated with DMSO, i14G1-10 ([…]), and i14G1-12 (10 μM). After 3 h, for TI-seq, cells were treated with 2 μg/ml harringtonine (Hrr) for 2 minutes followed by the addition of 100 μg/ml cycloheximide (CHX) for 5 minutes. For Ribo-seq cells were treated with 100 μg/ml cycloheximide (CHX) for 5 minutes. Thereafter, cells were lysed in polysome buffer. For both TI-seq and Ribo-seq, ribosome fractions were isolated using sucrose density centrifugation followed by Rnase I digestion. The total RNA was isolated using tri-reagent and used for high-throughput library preparation as described (Ingolia et al. 2012). The libraries were sequenced on the HiSeq2500 High-Output instrument (Illumina) for SR-60.
RNA-seq libraries. Total RNA was isolated from the lysates used for TI-seq and Ribo-seq, using Bio Tri RNA reagent. Total RNA was then cleaned up using Oligo d(T)25 Magnetic Beads (NEB 514195) to isolate mRNA. RNA-seq libraries prepared using a derivation of MARS-seq, produce expression libraries with two replicates of each treatment. ˜25 ng RNA was taken for first Reverse transcription reaction using Illumina barcoded RT1 primer. Resultant barcoded cDNA samples were subsequently pooled according to Ct values of Housekeeping gene (GAPDH) (Quality control 1). Pooled cDNA was treated with Exonuclease I to remove excess primers followed by Second strand synthesis using NEB SSS module enzyme mix. After that, in vitro transcription was performed using NEB T7 RNA Pol mix to generate RNA which was fragmented and ligated to an adaptor consisting RD2 using T4 RNA ligase I (NEB) followed by a second Reverse transcription reaction. The library was amplified using Kappa Hifi ready mix. The RNA libraries were sequenced using a high-throughput 75 bp kit (Illumina FC404-2005) on NEXTseq 500 sequencer. […]

[1] = tested on: P. falciparum translation; experiment: Puromycin incorporation western blot in P. falciparum blood cultures; format: cell-based, Plasmodium falciparum; details: i14G1-10 20 uM, i14G1-12 10 uM; 1 hour, puromycin 5 minutes
Protocol: FIGS. 8A-B: (8A) Bar graph of percent parasitemia in blood samples treated with i14G1-10 (20 μM) and i14G1-12 (10 μM) for 1 hour. DMSO treatment was used as a negative control. *=pVal; <0.05, ***=pVal<0.001 (8B) Photograph of a western blot and corresponding gel total protein staining of P. falciparum blood cultures treated with the inhibitors with or without the addition of puromycin. DMSO treatment and untreated cultures were used as a negative control.
Next, the method of action that caused the growth/survival inhibition was tested. […] Puromycin labels newly synthesized proteins and cell lysates were analysed by western blot with anti-puromycin antibody (FIG. 8B).

| Compound | ATF4 main ORF translation (HEK293T cells) | number of genes with translational downregulation of CDS (≥1.7 fold) (HEK293T cells) [genes] | number of genes with translational upregulation of CDS (HEK293T cells) [genes] | number of genes with upregulated 5′UTR translation (HEK293T cells) [genes] | translation efficiency of endogenous eIF1 (HEK293T cells) | protein synthesis (puromycin incorporation) [1] |
| --- | --- | --- | --- | --- | --- | --- |
| Cn1ccnc1S/C(=C/C=C(C#N)C#N)c1ccc(Cl)cc1 [i14G1-12] | upregulated | 874 | 547 | 1207 | upregulated | inhibited protein synthesis |
| O=C(/C=C/Sc1ccc(C(F)(F)F)cn1)c1ccccc1 [i14G1-10] | upregulated | 320 | 255 | 806 | upregulated | inhibited protein synthesis |
